{"source": "patent US20190022110A1", "about": "“AQUEOUS BASED CAPSAICINOID FORMULATIONS AND METHODS OF MANUFACTURE AND USE” (VIZURI HEALTH SCIENCES LLC, priority 2012, published 2019)", "key": {"[1]": {"settings": "cited from earlier work"}, "[2]": {"settings": "in vivo; cited from earlier work"}, "physchem": {"experiment": "physchem", "settings": "for solubility: aqueous with cosolvent or surfactant or cyclodextrin", "experimental": "The teachings of this application were utilized in solubilizing capsaicin in a high purity PS 80 obtained from Croda Inc.\n• 1. 10 grams of PS 80 are added to a 50 ml “Pyrex” glass vial. • 2. 2 grams of Trans-Capsaicin are added to the PS 80 in Step 1. • 3. The mixture from Step 2 is heated to ˜55° C. to dissolve the Trans-Capsaicin and form the Trans-Capsaicin/PS80 concentrate."}, "arthritic knee joints": {"tested_on": "arthritic knee joints", "experiment": "Clinical study: corticosteroid pretreatment and pain due to intra-articular capsaicin injection", "type": "in vivo, human", "experimental": "This study examined the administration of a corticosteroid as an adjunctive agent prior to the administration of capsaicin to attenuate the burning and stinging effect resulting for the intra-articular injection of capsaicin into the knee joint.\nTests were conducted to evaluate the effectiveness of a corticosteroid injection into a site prior to injection of a capsaicin formulation. Subjects with arthritic knee joints were selected and treated as follows: • The knee joint to be treated was cleaned with Betadine or other suitable antiseptic agent. • A […].\nProcedures and resulting pain level experienced by the injection of subjects injected with a 0.2 mg dose level of the capsaicin formulation as a function of elapsed time are summarized in Tables IX to XV. […] A description of the 6 knees treated with the capsaicin injections follows."}, "peripheral nociceptors": {"tested_on": "peripheral nociceptors", "settings": "cited from earlier work"}, "[3]": {"settings": "knee #1, patient #1, Depo-Medrol, no Lidocaine, 0.2 mg capsaicin"}, "[4]": {"settings": "knee #2, patient #2, Depo-Medrol, Lidocaine, 0.2 mg capsaicin"}, "[5]": {"settings": "knee #3, patient #3, Depo-Medrol, Lidocaine, 0.2 mg capsaicin"}, "[6]": {"settings": "knee #4, patient #4 left, Depo-Medrol, gel pack, Lidocaine, 0.2 mg capsaicin"}, "[7]": {"settings": "knee #5, patient #4 right, no corticosteroid, Lidocaine, 0.2 mg capsaicin"}, "[8]": {"settings": "knee #6, patient #1 right, Depo-Medrol, cold pack, Lidocaine, 0.2 mg capsaicin"}}}
{"compound": "CCCNC(C)C(=O)Nc1ccccc1C", "note": "(stereo not drawn) [Prilocaine]", "values": [{"measurement": "Aqueous Soluble", "setting": "[1]", "result": "sparingly"}, {"measurement": "Oil Soluble", "setting": "[1]", "result": "soluble"}]}
{"compound": "CC1CCC(C(C)C)C(O)C1", "note": "(stereo not drawn) [Menthol]", "values": [{"measurement": "Aqueous Soluble", "setting": "[1]", "result": "slightly"}, {"measurement": "Oil Soluble", "setting": "[1]", "result": "soluble"}]}
{"compound": "Polyethylene glycol [PEG]", "values": [{"measurement": "systemic absorption", "setting": "[2]", "result": "less than 0.5%"}]}
{"compound": "CCO", "note": "[Ethyl Alcohol]", "values": [{"measurement": "Aqueous Soluble", "setting": "[1]", "result": "miscible"}, {"measurement": "Oil Soluble", "setting": "[1]", "result": "soluble"}]}
{"compound": "CCOC(=O)c1ccc(N)cc1", "note": "[Benzocaine]", "values": [{"measurement": "Aqueous Soluble", "setting": "[1]", "result": "sparingly"}, {"measurement": "Oil Soluble", "setting": "[1]", "result": "soluble"}]}
{"compound": "COc1cc(CNC(=O)CCCC/C=C/C(C)C)ccc1O", "note": "[Capsaicin]", "values": [{"measurement": "capsaicin concentration achieved in PS 80", "setting": "physchem", "result": 200, "unit": "mg/mL"}, {"measurement": "capsaicin solubility with PEG-400 compared to PS80", "setting": "physchem", "result": "did not achieve the capsaicin solubility levels"}, {"measurement": "supersaturation of Capsaicin/PS 80 solution", "setting": "physchem", "result": "not supersaturated"}, {"measurement": "dissolution of capsaicin without pre-formed concentrate", "setting": "physchem; PS 80 and capsaicin added to water, then heated to ~70° C.-90° C.", "result": "only a fraction of the capsaicin dissolving"}, {"measurement": "solubility", "setting": "physchem; aqueous capsaicin solubility level", "result": 20000, "unit": "µg/mL"}, {"measurement": "solubility", "setting": "physchem; aqueous capsaicin solubility level, 2 ml capsaicin/PS 80 concentrate added to 98 grams of ~70° C. water, cooled to room temperature", "result": 4000, "unit": "µg/mL"}, {"measurement": "solubility", "setting": "physchem; increase of aqueous solubility of capsaicin", "result": "~1000", "unit": "µg/mL"}, {"measurement": "pain status of treated knees as of the date of filing", "setting": "arthritic knee joints; all patients, 0.2 mg capsaicin intra-articular", "result": "remain pain free"}, {"measurement": "duration pain free", "setting": "arthritic knee joints; in one case", "result": "over 3 weeks"}, {"measurement": "duration of extreme pain following capsaicin injection", "setting": "arthritic knee joints; [3]", "result": "about 1 hour"}, {"measurement": "relief of arthritic pain symptoms", "setting": "arthritic knee joints; [3]", "result": "significant relief of their arthritic pain symptoms"}, {"measurement": "time of procedure until relief of arthritic pain symptoms", "setting": "arthritic knee joints; [3]", "result": "~80", "unit": "min"}, {"measurement": "relief of arthritic pain symptoms", "setting": "arthritic knee joints; [4]", "result": "complete relief of their osteoarthritic pain symptoms"}, {"measurement": "time until procedure completed and pain relief", "setting": "arthritic knee joints; [4]", "result": "about 30 minutes"}, {"measurement": "relief of arthritic pain symptoms", "setting": "arthritic knee joints; [5]", "result": "complete relief for their painful arthritic symptoms"}, {"measurement": "time until procedure concluded and pain relief", "setting": "arthritic knee joints; [5]", "result": "about 23 minutes"}, {"measurement": "relief of arthritic pain symptoms", "setting": "arthritic knee joints; [6]", "result": "complete relief of their painful severe osteoarthritis pain"}, {"measurement": "time pain level remained at a mild level before complete relief", "setting": "arthritic knee joints; [6]", "result": "about 13 minutes"}, {"measurement": "relief of arthritic pain symptoms", "setting": "arthritic knee joints; [7]", "result": "alleviated their painful arthritic symptoms"}, {"measurement": "time until arthritic symptoms alleviated", "setting": "arthritic knee joints; [7]", "result": "~25", "unit": "min"}, {"measurement": "relief of arthritic pain symptoms", "setting": "arthritic knee joints; [8]", "result": "complete relief of their painful arthritic symptoms"}, {"measurement": "time until procedure concluded and pain relief", "setting": "arthritic knee joints; [8]", "result": "about 17 minutes"}, {"measurement": "Aqueous Soluble", "setting": "[1]", "result": "insoluble"}, {"measurement": "Oil Soluble", "setting": "[1]", "result": "soluble"}, {"measurement": "duration of subsequent mild pain", "setting": "peripheral nociceptors; injectable capsaicin formulations, after the intense B&S pain", "result": "1 to 2", "unit": "h"}, {"measurement": "duration of intense burning and stinging (B&S) pain", "setting": "peripheral nociceptors; injectable capsaicin formulations", "result": "up to 1 hour"}, {"measurement": "persistence of spontaneous burning pain and hyperalgesia", "setting": "peripheral nociceptors; upon capsaicin injection in clinical trials", "result": "up to 60 minutes"}]}
